These results are taken from patent publication US11415493B2, “Detection of cells in a liquid sample” (DELTA INSTRUMENTS B.V., priority 2016, dated 2022).

In data set [1] the test system is bacteria in raw milk. The data set is described as follows: Initial staining of bacteria in raw milk diluted in saline buffer, flow cytometer. It counts as cell-based. The method, then: During initial work, raw milk was diluted in a buffer solution and the cell permeant nucleic acid stain SYTO® 9 was used to stain the bacteria contained in the milk. A flow cytometer, equipped with a 488 nm laser as the light source, forward and right angle scatter detectors, and three fluorescence detectors, was used to detect the fluorescence from labeled bacteria. The three fluorescence detectors in the flow cytometer in that initial experiment had the following optical filters; 527 nm Bandpass (FL1), 590 nm Bandpass (FL2), and a 630 nm Longpass (FL3). The flow cytometer utilizes a system that provides volumetric measurement of the sample analyzed and yields a count per unit volume. […] The conclusion was that the background fluorescent signal from the various components in raw milk, and the non-specific binding of the dye to these components, dominated the signal such that it was impossible to detect any bacteria-related fluorescence. Additionally the large scatter signals detected in flow cytometry from the milk fat globules, casein micelles and other components in the milk, prevented the use of forward and right angle scatter in the detection of bacteria. To prevent the background signal, the inventors of the present invention made an attempt to minimize such interference. […]
In general terms: Flow cytometry measures light scatter and fluorescence of single cells or particles in a stream.

The test system of data set [2] is cells. The following applies: cited from earlier work.
For data set [3], the system named is E. coli. The data set is described as follows: Staining E. coli culture with different nucleic acid dyes, flow cytometer counts (FL1FL2 region). It counts as cell-based, Escherichia coli. The method, then:
First, an experiment was performed to confirm that bacterial counts obtained on the flow cytometer using GelGreen™ did correlate with traditional plate counts. For this, the Petrifilm method was selected (Standard Methods for Examination of Dairy Products 17th Edition 2004. Edited by H. M. Wehr and J. R. Frank. American Public Health Association, 800 I Street, NW, Washington D.C. 200001. Chapter 6.040), rather than a poured agar plate method, because of ease of use. Escherichia coil (E. coli) cultures were grown at 36° C. in Trypticase Soy Broth (TSB) in a culture tube. A staining composition was prepared as follows: The nucleic acid dye GelGreen™ (from Biotium) was diluted to 1× from the 10,000× commercially available stock, into Tris-buffered saline (100 mM Trizma base, 100 mM Trizma HCl, 150 mM NaCl, pH 8.5), which was preheated to 50° C. The used dilution of 1:10,000 of the GelGreen™ is in accordance with the manufacturer's recommendation for using GelGreen™ for the purpose it was intended for, namely staining DNA in an agarose gel. This is the dilution of GelGreen™ used in all the examples herein. The E. coli culture was removed from the 36° C. incubator and a small volume was diluted 1:100 into the preheated staining composition and incubated for approximately 4.5 min at 50° C. The stained E. coli was analyzed on the flow cytometer and the FL1 (Bandpass 531 nm (519-551)) and FL2 (Long pass >550 nm) fluorescence channels were used to identify the stained bacteria (FIGS. 1A and 1C). A rectangular region was defined around the positively stained cells identified as live cells in the FL1 versus FL2 2-dimensional correlation plot (FIG. 1B). A count per mL of the E. coli was obtained from the flow cytometry analysis. The E. coli culture was then diluted in TSB to obtain 3 different concentrations (1:10, 1:100 and 1:1000, respectively). The E. coli cultures were kept at 4° C. to minimize further growth until analysis. Each dilution of E. coli was stained with the GelGreen™ reagent, analyzed on the flow cytometer and counts for each dilution were obtained. Each E. coli culture was also appropriately diluted in Butterfield's PBS and 1 mL of the appropriately diluted culture was plated on Petrifilms in duplicate. The Petrifilms were placed in a 30° C. incubator, removed after 48 hrs and the colonies on each Petrifilm were counted using an automated colony counter. An average CFU/mL for each E. coli dilution was obtained. The Log of the flow cytometer bacterial counts using GelGreen™ was plotted versus the Log CFU counts from the Petrifilm (FIG. 2).
To show where the bacteria in the FL1 and FL2 signal plots can be expected, bacteria were first counted in the staining composition without adding any milk. A culture of E. coli were grown at 36° C. in Trypticase Soy Broth (TSB) in a culture tube. The nucleic acid dye GelGreen™ was diluted into Tris-buffered saline, at approximately pH 8.5, which was preheated to 50° C. The E. coli culture was removed from the 36° C. incubator and a small volume was diluted 1:100 into the preheated staining composition and incubated for approximately 4.5 min at 50° C. The stained E. coli was analyzed on the flow cytometer and the FL1 and FL2 fluorescence channels were used to identify the stained bacteria (FIG. 3A).
A culture of E. coli was grown at 36° C. in Trypticase Soy Broth (TSB), stained with GelGreen™ and counted on the flow cytometer (FIG. 5) as described in example 2. The E. coli culture was then kept at 4° C. until stained with other nucleic acid dyes. The nucleic acid dyes TOTO®-1 and SYBR® Safe (both from Thermo Fisher Scientific) were selected as alternatives. […] Both dyes have similar spectral properties to GelGreen™ and were diluted in Tris-buffered saline using the same dilution factor as GelGreen™. […]

Data set [4] concerns bacteria in milk samples. Description: Individual bacterial count (IBC) in milk samples with different cell-impermeant dyes, flow cytometer. In kind it is cell-based. The method, then:
The nucleic acid dyes, Evagreen®, SYTOX® Green and Propidium iodide where tested against GelGreen™ (the reference method). […] Nucleic acid dyes Evagreen®, SYTOX® Green and propidium iodide were tested using the same staining and incubation conditions as for the reference method only differing in the type of dye comprised in the staining composition. Evagreen® was used at a concentration of 1.25 μM in the staining composition. SYTOX® Green and Propidium iodide were used at a concentration of 5 μM in the staining composition. Three different types of milk were used: Locally obtained raw bulk tank milk from a farm and dairy plant where collected at a local farmer. This milk is referred to as fresh raw milk and is not older than 24 hours. 24 hour and 48 hour old milk were obtained from a dairy plant. […] For this purpose E. coli was grown overnight (approx. 15 h) in TSB at 32° C. The dead bacterial where obtained by heating the grown E. coli at 110° C. for 10 minutes. An amount of 200 μl of E. coli (living or dead/damaged) is added to 45 ml fresh raw bulk milk. Both living and dead are from the same culture tube and exactly the same amount is put in the 45 ml Fresh raw milk. All the milk samples are kept at 4° C. until analyzed. […] Finally, the samples were analyzed on the flow cytometer and the fluorescent signals from the bacteria were detected and a count per unit volume was determined. […]

Entries after “also recorded” stand apart in the source; their conditions may differ. Like-named read-outs stand apart in the source and are kept apart here.

On to SYTO® 9, for which, in data set [1], the “fluorescence signals of raw milk with spiked bacteria” value is reported as “identical to the fluorescence detected in raw milk without spiked bacteria”.
For `CN1/C(=C/c2cc[n+](CCC[N+](C)(C)CCC[N+](C)(C)CCC[n+]3ccc(/C=C4\Sc5ccccc5N4C)c4ccccc43)c3ccccc23)Sc2ccccc21.[I-].[I-].[I-].[I-]` [TOTO®-1], in data set [2] (property stated for the dye), the cell membrane permeability result is recorded as “cell impermeant”. For the same compound, in data set [3] (Tris-buffered saline pH 8.5, 50° C., approximately 4.5 min), the “staining of E. coli” value is “minimal staining; also recorded: does not stain E. coli”.
Regarding `CCCN1C=C/C(=C\c2sc3ccccc3[n+]2C)c2ccccc21` [SYBR® Safe], the cell membrane permeability entry in data set [2] (property stated for the dye) is “readily crosses the membrane of cells”. The “staining of E. coli” value in data set [3] (Tris-buffered saline pH 8.5, room temperature (23° C.)) is on record as “does not need heating to stain E. coli”.
Regarding `CC[N+](C)(CC)CCC[n+]1c(-c2ccccc2)c2cc(N)ccc2c2ccc(N)cc21.[I-].[I-]` [Propidium iodide], in data set [2], the cell membrane permeability result is “only penetrates cell membranes of dead cells”. The “usefulness as alternative dye for GelGreen in the method” value in data set [4] (conclusion over all milk samples) was “does not work”. Besides, the IBC counts result in data set [4] (milk samples except milk spiked with E. coli and cooked, 68° C., 1 min, pH 10.6) was “Almost no IBC counts”.
